Test results as given in patent publication US9573911B2, “Diphosphate mimetics and uses thereof” (President and Fellows of Harvard College, priority 2011, dated 2017).

Columns and labels:
SRPK2 = target: T1, SRPK2 (Homo sapiens, UniProt P78362); assay: Kinase profiling, Invitrogen Z'-LYTE; type: biochemical; details: Table 2
T1 construct: purchased Invitrogen
Protocol: (§1) Kinase profiling was conducted using Invitrogen Z'-LYTE screening protocol and assay conditions found at www.invitrogen.com. Compound (2) inhibited PLK1 completely at 5 μM.

SGKL (SGK3) = target: T2, SGKL (SGK3) (Homo sapiens, UniProt Q96BR1); assay: Kinase profiling, Invitrogen Z'-LYTE; type: biochemical; details: Table 2
T2 construct: purchased Invitrogen
T2 sequence (Q96BR1 1-496): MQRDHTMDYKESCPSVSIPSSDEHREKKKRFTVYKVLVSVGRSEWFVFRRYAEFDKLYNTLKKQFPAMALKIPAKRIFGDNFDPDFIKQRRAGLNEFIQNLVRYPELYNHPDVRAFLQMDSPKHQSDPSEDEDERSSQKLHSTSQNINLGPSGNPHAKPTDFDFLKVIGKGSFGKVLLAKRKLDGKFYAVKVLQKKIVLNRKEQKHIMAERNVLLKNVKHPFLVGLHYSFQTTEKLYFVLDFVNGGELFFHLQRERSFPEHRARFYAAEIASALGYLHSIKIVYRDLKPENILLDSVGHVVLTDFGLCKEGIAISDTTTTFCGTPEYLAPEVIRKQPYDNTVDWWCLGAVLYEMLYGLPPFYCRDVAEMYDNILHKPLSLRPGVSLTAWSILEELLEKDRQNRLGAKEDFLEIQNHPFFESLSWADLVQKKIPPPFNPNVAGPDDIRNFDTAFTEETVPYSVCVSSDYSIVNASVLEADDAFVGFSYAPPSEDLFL
Protocol: as §1

MCF-10A ErbB2 cells = assay: Western blot of BZX-treated human breast cancer cells (O-GlcNAcylation); type: cell-based; details: 200 μM
Protocol: Western Blot of BZX-Treated Human Breast Cancer Cells MCF-10A ErbB2 cells were obtained from Joan Brugge's lab at Harvard Medical School (Boston, Mass.). Cells were maintained in DMEM/F12 (Invitrogen) supplemented with 5% horse serum (Invitrogen), 20 ng/ml EGF (Peprotech), 10 μg/ml insulin (Sigma), 100 ng/ml cholera toxin (Sigma), […] hydrocortisone (Sigma), 50 U/ml penicillin and 50 μg/ml streptomycin (Invitrogen). When cells were grown to 70% confluence, old growth medium was removed. Cells were rinsed twice with PBS, and were grown in glucose starvation medium (DMEM-no glucose; Invitrogen) supplemented with 1% horse serum, 50 U/ml penicillin and 50 μg/ml streptomycin) in the absence (control) and presence of (2) (200 μM) for 4 h. PUGNAc (100 μM, Sigma) and glucosamine (2 mM, EMD) were added to the cells and incubated for another 3 h. Cell lysates from 2−5×10^6 cells were prepared in M-PER mammalian protein extraction reagent (Pierce) supplemented with protease inhibitor cocktail (Sigma). Lysates were cleared by centrifugation at 16,000 g for 10 min at 4° C. and analyzed by SDS-PAGE. Proteins were transferred to a nitrocellulose membrane (Bio-Rad Laboratories) and O-GlcNAcylation was detected with anti-O-GlcNAc antibody (CTD 110.6, Sigma, used at 1:5,000) and a secondary anti-mouse IgM-HRP antibody (Pierce, used at 1:20,000). Western Blot of BZX Inhibitor Treated Cell Lysates

OGT = target: T3, OGT (Homo sapiens, UniProt O15294); assay: Time-dependent inactivation of OGT with BZX compounds; type: biochemical
T3 construct: hOGT4.5 construct (spanning residues 313-1031 based on the numbering of the full length human protein); made in house
T3 sequence (O15294 313-1031 isoform O15294-3): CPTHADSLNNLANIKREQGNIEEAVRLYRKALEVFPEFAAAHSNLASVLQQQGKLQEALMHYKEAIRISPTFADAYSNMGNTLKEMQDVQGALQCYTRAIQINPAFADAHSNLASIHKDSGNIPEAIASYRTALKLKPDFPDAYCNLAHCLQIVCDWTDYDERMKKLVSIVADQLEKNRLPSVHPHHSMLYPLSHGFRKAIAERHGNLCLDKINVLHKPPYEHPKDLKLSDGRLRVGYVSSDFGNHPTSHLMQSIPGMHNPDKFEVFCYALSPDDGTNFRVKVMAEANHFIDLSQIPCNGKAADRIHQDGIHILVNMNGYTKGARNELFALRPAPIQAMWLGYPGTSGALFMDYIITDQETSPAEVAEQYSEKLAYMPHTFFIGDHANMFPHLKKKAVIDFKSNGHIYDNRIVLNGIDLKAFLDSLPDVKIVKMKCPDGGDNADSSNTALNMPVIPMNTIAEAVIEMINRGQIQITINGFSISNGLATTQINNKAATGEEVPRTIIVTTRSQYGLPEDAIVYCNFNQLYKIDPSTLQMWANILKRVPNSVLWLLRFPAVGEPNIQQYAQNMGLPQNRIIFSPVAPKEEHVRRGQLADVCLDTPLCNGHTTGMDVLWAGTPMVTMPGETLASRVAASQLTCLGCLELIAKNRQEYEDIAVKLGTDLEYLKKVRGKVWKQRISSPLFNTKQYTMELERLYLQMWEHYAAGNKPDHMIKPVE
Text: Compound (1) was identified in a high-throughput screen of 65,000 compounds (FIG. 1). See, e.g., Gross et al., J. Am. Chem. Soc. (2005) 127:14588-14589. It contains a dicarbamate moiety that links two aromatic groups. This compound features a conjugated chemical structure and both carbamate carbonyls are potentially reactive. See, e.g., Alexander et al., Chem. Biol. (2005) 12:1179-1187. […] A small panel of related compounds was made from commercially available building blocks in order to identify structural features that might improve potency. Time-dependent inactivation studies were carried out in which OGT was preincubated with a three-fold excess of each compound for 5 min, and the mixture was then diluted 100-fold into buffer containing UDP-^14C-GlcNAc and the well-characterized peptide substrate, CKII. See, e.g., Kreppel et al., J. Biol. Chem. (1999) 274:32015-32022). Enzyme activity was measured using a previously developed peptide capture assay. See, e.g., Gross et al., J. Am. Chem. Soc. (2005) 127:14588-14589.
Each BZX compound (7.5 μM) was preincubated with 5 μM OGT in reaction buffer (125 mM NaCl, 1 mM EDTA, 20 mM potassium phosphate, pH 7.4, and 500 μM tris(hydroxypropyl)phosphine (THP)) at room temperature for different amount of time, then diluted 100-fold, mixed with substrates (6 μM UDP-^14C-GlcNAc and 500 μM CKII peptide (KKKYPGGSTPVSSANMM)) and allowed to react for another 2 h. Enzyme activity was tested with the peptide capture assay as previously reported. See, e.g., Gross et al., J. Am. Chem. Soc. (2005) 127:14588-14589. The final volume of each reaction was 20 μl, and the experiments were conducted in triplicate. The activities of OGT mutants were also tested in triplicate as previously reported. See, e.g., Gross supra.

T1 sequence (P78362 whole entry): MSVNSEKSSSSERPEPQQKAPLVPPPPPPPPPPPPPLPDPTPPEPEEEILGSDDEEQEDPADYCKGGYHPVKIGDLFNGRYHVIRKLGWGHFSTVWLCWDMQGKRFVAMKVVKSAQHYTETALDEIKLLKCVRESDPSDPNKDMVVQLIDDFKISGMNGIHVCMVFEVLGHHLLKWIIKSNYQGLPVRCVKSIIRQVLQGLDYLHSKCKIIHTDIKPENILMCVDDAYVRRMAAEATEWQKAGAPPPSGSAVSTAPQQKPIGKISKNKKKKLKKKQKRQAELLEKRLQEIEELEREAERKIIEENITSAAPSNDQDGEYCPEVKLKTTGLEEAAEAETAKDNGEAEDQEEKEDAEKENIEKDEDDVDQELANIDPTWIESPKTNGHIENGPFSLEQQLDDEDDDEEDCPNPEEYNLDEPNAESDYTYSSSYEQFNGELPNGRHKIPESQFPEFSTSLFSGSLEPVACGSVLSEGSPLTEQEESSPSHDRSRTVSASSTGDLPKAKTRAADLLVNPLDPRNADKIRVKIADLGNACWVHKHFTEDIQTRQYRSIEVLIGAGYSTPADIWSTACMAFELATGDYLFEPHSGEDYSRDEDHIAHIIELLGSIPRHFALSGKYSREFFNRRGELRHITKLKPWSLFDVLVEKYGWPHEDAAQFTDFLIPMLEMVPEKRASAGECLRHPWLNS

Compound: COc1ccc(OC(=O)n2c(=O)oc3cc(C(C)=O)ccc32)cc1 [Compound 2]
- % Inhibition Point 1 (SRPK2): −155%
- % Inhibition Point 2 (SRPK2): −160%
- % Inhibition mean (SRPK2): −158%
- % Inhibition Point 1 (SGKL (SGK3)): −140%
- % Inhibition Point 2 (SGKL (SGK3)): −150%
- % Inhibition mean (SGKL (SGK3)): −145%
- inhibition of O-GlcNAcylation in cells (MCF-10A ErbB2 cells): inhibits global O-GlcNAcylation in cells
- inactivation time course of OGT (OGT; 1.5:1 inhibitor:enzyme ratio): fully inactivated OGT
- OGT inactivation in the presence of UDP-GlcNAc in the preincubation mixture (OGT; OGT 5 μM, compound 20 μM, UDP-GlcNAc 40 μM, 2-20 min): UDP-GlcNAc reduced the rate of inactivation
- time to full inactivation of OGT (OGT; near 1:1 ratio): ≤ 5 min
